Laboratory results as given in patent US10273222B2 (CELGENE QUANTICEL RESEARCH, INC., priority 2013, dated 2019).

Legend:
Type in all cases: biochemical
[1] = target: JMJD2A (Homo sapiens (Human), UniProt O75164); assay: JMJD2A in vitro enzyme inhibition assay (TR-FRET)
Protocol: This assay determines the ability of a test compound to inhibit Jarid1A, Jarid1B, JMJD2C, and JMJD2A demethylase activity. […] Baculovirus expressed JMJD2A (GenBank Accession #NM_014663, AA 1-350) was purchased from BPS Bioscience (Cat#50123).
The ability of test compounds to inhibit the activity of JMJD2A was determined in 384-well plate format under the following reaction conditions: 2 nM JMJD2A, 300 nM H3K9me3-biotin labeled peptide (Anaspec cat #64360), 2 μM alpha-ketoglutaric acid in assay buffer of 50 mM HEPES, pH7.3, 0.005% Brij35, 0.5 mM TCEP, 0.2 mg/ml BSA, 50 μM sodium L-ascorbate, and 2 μM ammonium iron(II) sulfate. Reaction product was determined quantitatively by TR-FRET after the addition of detection reagent Phycolink Streptavidin-allophycocyanin (Prozyme) and Europium-anti-di-methylated histone H3 lysine 9 (H3K9me2) antibody (PerkinElmer) in the presence of 5 mM EDTA in LANCE detection buffer (PerkinElmer) at a final concentration of 50 nM and 1 nM, respectively.
The assay reaction was initiated by the following: 2 μl of the mixture of 900 nM H3K9me3-biotin labeled peptide and 6 μM alpha-ketoglutaric acid with 2 μl of 11-point serial diluted inhibitor in 3% DMSO were added to each well of plate, followed by the addition of 2 μl of 6 nM JMJD2A to initiate the reaction. The reaction mixture was incubated at room temperature for 30 minutes, and terminated by the addition of 6 μl of 5 mM EDTA in LANCE detection buffer containing 100 nM Phycolink Streptavidin-allophycocyanin and 2 nM Europium-anti-H3K9me2 antibody. Plates were read by EnVisionMultilabel Reader in TR-FRET mode (excitation at 320 nm, emission at 615 nm and 665 nm) after 1 hour incubation at room temperature. A ratio was calculated (665/615) for each well and fitted to determine inhibition constant (IC50).

[2] = target: JMJD2C (Homo sapiens (Human), UniProt Q9H3R0); assay: JMJD2C in vitro enzyme inhibition assay (TR-FRET)
Protocol: This assay determines the ability of a test compound to inhibit Jarid1A, Jarid1B, JMJD2C, and JMJD2A demethylase activity. […] Baculovirus expressed JMJD2C (GenBank Accession #BC143571, AA 2-372) was purchased from BPS Bioscience (Cat#50105).
The ability of test compounds to inhibit the activity of JMJD2C was determined in 384-well plate format under the following reaction conditions: 0.3 nM JMJD2C, 300 nM H3K9me3-biotin labeled peptide (Anaspec cat #64360), 2 μM alpha-ketoglutaric acid in assay buffer of 50 mM HEPES, pH7.3, 0.005% Brij35, 0.5 mM TCEP, 0.2 mg/ml BSA, 50 μM sodium L-ascorbate, and 2 μM ammonium iron(II) sulfate. Reaction product was determined quantitatively by TR-FRET after the addition of detection reagent Phycolink Streptavidin-allophycocyanin (Prozyme) and Europium-anti-di-methylated histone H3 lysine 9 (H3K9me2) antibody (PerkinElmer) in the presence of 5 mM EDTA in LANCE detection buffer (PerkinElmer) at a final concentration of 50 nM and 1 nM, respectively.
The assay reaction was initiated by the following: 2 μl of the mixture of 900 nM H3K9me3-biotin labeled peptide and 6 μM alpha-ketoglutaric acid with 2 μl of 11-point serial diluted inhibitor in 3% DMSO were added to each well of the plate, followed by the addition of 2 μl of 0.9 nM JMJD2C to initiate the reaction. The reaction mixture was incubated at room temperature for 30 minutes, and terminated by the addition of 6 μl of 5 mM EDTA in LANCE detection buffer containing 100 nM Phycolink Streptavidin-allophycocyanin and 2 nM Europium-anti-H3K9me2 antibody. Plates were read by EnVisionMultilabel Reader in TR-FRET mode (excitation at 320 nm, emission at 615 nm and 665 nm) after 1 hour incubation at room temperature. A ratio was calculated (665/615) for each well and fitted to determine inhibition constant (IC50).

[3] = target: Jarid1B (Homo sapiens (Human), UniProt Q9UGL1); assay: Jarid1B in vitro enzyme inhibition assay (TR-FRET)
Sequence of Jarid1B (Q9UGL1 2-751): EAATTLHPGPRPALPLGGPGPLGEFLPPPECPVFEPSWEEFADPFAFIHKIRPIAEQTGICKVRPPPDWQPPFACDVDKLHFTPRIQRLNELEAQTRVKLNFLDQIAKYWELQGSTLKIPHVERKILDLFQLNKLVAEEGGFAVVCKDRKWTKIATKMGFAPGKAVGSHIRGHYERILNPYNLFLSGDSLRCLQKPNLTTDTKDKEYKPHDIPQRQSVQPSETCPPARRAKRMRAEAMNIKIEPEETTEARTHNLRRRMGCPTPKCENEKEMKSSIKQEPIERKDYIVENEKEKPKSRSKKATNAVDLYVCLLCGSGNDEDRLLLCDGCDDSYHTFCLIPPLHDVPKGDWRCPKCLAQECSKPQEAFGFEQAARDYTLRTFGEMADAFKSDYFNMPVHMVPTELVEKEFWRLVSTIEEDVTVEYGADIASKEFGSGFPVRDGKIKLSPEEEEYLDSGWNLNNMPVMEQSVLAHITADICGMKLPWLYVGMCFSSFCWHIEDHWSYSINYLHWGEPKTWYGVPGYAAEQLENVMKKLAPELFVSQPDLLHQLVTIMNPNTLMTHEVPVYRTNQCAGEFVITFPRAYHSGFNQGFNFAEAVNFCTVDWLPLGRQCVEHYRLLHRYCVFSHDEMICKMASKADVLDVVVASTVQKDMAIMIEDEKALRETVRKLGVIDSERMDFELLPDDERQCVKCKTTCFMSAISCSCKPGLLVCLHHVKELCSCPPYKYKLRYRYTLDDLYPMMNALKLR

[4] = target: Jarid1A (Homo sapiens (Human), UniProt P29375); assay: Jarid1A in vitro enzyme inhibition assay (TR-FRET)
Sequence of Jarid1A (P29375 1-1090): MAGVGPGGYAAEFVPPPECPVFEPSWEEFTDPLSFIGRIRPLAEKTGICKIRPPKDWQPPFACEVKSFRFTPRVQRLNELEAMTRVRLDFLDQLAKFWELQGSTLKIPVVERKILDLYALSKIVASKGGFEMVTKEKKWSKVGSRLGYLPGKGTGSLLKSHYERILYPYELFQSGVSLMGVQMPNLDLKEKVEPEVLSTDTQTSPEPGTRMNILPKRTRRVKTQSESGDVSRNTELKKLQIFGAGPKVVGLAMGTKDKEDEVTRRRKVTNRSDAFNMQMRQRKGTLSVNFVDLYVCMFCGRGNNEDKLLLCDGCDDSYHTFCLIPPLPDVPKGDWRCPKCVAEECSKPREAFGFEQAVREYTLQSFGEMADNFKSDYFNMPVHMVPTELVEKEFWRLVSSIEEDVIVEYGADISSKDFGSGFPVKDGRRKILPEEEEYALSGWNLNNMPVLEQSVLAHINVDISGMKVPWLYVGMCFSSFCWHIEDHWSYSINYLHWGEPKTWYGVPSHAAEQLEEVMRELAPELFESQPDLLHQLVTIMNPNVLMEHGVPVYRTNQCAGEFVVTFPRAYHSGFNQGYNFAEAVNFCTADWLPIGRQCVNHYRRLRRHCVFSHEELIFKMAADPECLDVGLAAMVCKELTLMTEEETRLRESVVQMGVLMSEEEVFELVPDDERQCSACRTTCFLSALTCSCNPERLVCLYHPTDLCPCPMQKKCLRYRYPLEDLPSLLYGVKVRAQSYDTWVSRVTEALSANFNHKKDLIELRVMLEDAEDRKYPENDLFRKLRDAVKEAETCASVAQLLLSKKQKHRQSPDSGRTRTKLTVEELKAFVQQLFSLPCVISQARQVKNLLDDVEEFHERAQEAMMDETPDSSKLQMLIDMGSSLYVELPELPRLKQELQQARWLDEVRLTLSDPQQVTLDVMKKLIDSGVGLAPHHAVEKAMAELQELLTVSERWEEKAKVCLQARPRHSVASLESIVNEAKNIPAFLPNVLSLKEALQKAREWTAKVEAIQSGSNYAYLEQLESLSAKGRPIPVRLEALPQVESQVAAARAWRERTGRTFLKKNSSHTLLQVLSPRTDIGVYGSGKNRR
From the text: The enzymatic assay of Jarid1A activity is based upon Time Resolved-Fluorescence Resonance Energy Transfer (TR-FRET) detection.

[5] = target: FBXL10 (Homo sapiens (Human), UniProt Q8NHM5); assay: FBXL10 in vitro enzyme inhibition assay (AlphaScreen)
Sequence of FBXL10 (Q8NHM5 1-650): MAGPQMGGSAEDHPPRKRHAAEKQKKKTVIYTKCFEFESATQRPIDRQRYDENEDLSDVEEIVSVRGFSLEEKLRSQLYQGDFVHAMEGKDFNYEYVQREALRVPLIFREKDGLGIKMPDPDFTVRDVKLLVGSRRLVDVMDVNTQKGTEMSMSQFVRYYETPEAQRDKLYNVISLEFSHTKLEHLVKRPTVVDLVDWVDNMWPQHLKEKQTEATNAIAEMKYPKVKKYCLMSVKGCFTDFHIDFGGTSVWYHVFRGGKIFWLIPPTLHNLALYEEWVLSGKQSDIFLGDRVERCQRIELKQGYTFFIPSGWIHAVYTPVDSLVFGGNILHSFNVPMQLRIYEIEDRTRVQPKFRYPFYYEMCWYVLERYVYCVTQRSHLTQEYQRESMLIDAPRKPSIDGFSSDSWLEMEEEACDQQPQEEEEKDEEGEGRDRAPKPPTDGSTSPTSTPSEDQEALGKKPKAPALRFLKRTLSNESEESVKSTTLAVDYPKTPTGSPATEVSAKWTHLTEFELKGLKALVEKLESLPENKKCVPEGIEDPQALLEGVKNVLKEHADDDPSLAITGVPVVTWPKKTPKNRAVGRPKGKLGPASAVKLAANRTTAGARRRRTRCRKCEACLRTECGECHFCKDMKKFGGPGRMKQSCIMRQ
How it was run: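 AlphaScreen read-out of H3K36me1 product, detected with anti-H3K36me1 antibody plus streptavidin donor and Protein A acceptor beads (final 10 μg/ml) in 50 mM HEPES pH 7.3, 10 mM NaCl, 0.005% Brij35, 5 mM EDTA, 2 mg/ml BSA. Beads incubated 2 h to overnight at room temperature; IC50 derived from AlphaScreen signal.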

Sequence of JMJD2A (O75164 1-350): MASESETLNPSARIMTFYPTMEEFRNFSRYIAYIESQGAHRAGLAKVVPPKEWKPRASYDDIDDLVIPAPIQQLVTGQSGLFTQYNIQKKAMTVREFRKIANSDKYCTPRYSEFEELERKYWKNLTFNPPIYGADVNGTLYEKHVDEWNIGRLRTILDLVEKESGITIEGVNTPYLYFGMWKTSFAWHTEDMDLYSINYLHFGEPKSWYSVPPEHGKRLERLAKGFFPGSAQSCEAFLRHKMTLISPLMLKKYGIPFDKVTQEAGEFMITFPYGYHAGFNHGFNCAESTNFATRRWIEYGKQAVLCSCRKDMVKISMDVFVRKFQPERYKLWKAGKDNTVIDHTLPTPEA
Sequence of JMJD2C (Q9H3R0 2-372): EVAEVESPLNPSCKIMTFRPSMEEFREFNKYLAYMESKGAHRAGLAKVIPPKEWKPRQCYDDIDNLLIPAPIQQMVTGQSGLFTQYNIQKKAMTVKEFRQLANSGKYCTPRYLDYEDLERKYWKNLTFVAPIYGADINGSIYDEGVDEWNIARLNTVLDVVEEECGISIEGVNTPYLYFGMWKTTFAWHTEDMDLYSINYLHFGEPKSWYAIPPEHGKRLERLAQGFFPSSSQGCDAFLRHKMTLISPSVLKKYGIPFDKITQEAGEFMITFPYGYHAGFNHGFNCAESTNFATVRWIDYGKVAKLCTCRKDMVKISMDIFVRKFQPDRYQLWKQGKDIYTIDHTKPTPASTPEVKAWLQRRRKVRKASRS

| Structure (SMILES) | IC50 [1] [nM] | IC50 [2] [nM] | IC50 [3] [nM] | IC50 [4] [nM] | IC50 [5] [nM] |
| --- | --- | --- | --- | --- | --- |
| O=C(O)c1ccnc(-c2cn(C3CCc4ccc(F)cc43)cn2)c1 (stereo not drawn) [Example 109, 2-[1-(6-fluoro-2,3-dihydro-1H-inden-1-yl)imidazol-4-yl]pyridine-4-carboxylic acid] | 100 to 1000 | 1000 to 10000 | ≤ 100 | ≤ 100 | ≤ 100 |
| Clc1ccccc1CCn1cnc(-c2cc(-c3nn[nH]n3)ccn2)c1 [Example 141, 2-[1-[2-(2-chlorophenyl)ethyl]imidazol-4-yl]-4-(2H-tetrazol-5-yl)pyridine] | > 10000 | 1000 to 10000 | 100 to 1000 | 100 to 1000 | ≤ 100 |
| CN(CCn1cnc(-c2cc(C(=O)NC#N)ccn2)c1)CC1CC1 [Example 64, N-cyano-2-(1-{2-[(cyclopropylmethyl)(methyl)amino]ethyl}-1H-imidazol-4-yl)pyridine-4-carboxamide] | > 10000 | 100 to 1000 | ≤ 100 | ≤ 100 | > 10000 |
| O=C(O)c1ccnc(-c2cn(CCN3CCc4cc(F)ccc43)cn2)c1 [Example 91, 2-[1-[2-(5-fluoro-2,3-dihydroindol-1-yl)ethyl]imidazol-4-yl]pyridine-4-carboxylic acid] | 100 to 1000 | 100 to 1000 | ≤ 100 | ≤ 100 | 100 to 1000 |
| O=C(O)c1ccnc(-c2cn(C3CCc4c(F)cccc43)cn2)c1 (stereo not drawn) [Example 110, 2-[1-(4-fluoro-2,3-dihydro-1H-inden-1-yl)imidazol-4-yl]pyridine-4-carboxylic acid] | 100 to 1000 | 100 to 1000 | ≤ 100 | ≤ 100 | ≤ 100 |
| O=C(O)c1ccnc(-c2cn(Cc3cccc(-c4ccccc4)c3)cn2)c1 [Example 111, 2-[1-[(3-phenylphenyl)methyl]imidazol-4-yl]pyridine-4-carboxylic acid] | 1000 to 10000 | 1000 to 10000 | ≤ 100 | ≤ 100 | ≤ 100 |

The next lines start with the values.

| IC50 [1] [nM] | IC50 [2] [nM] | IC50 [3] [nM] | IC50 [4] [nM] | IC50 [5] [nM] | Structure (SMILES) |
| --- | --- | --- | --- | --- | --- |
| 100 to 1000 | 100 to 1000 | ≤ 100 | ≤ 100 | ≤ 100 | CN(CCn1cnc(-c2cc(C(=O)O)ccn2)c1)c1ccccc1 [Example 58, 2-(1-{2-[methyl(phenyl)amino]ethyl}-1H-imidazol-4-yl)pyridine-4-carboxylic acid] |
| ≤ 100 | ≤ 100 | ≤ 100 | ≤ 100 | 100 to 1000 | CN(CCn1cnc(-c2cc(C(=O)O)ccn2)c1)CC1CC1 [Example 59, 2-(1-{2-[(cyclopropylmethyl)(methyl)amino]ethyl}-1H-imidazol-4-yl)pyridine-4-carboxylic acid] |
| ≤ 100 | ≤ 100 | ≤ 100 | ≤ 100 | ≤ 100 | CN(CCn1cnc(-c2cc(C(=O)O)ccn2)c1)Cc1ccc(F)cc1 [Example 38, 2-[1-[2-[(4-fluorophenyl)methyl-methylamino]ethyl]imidazol-4-yl]pyridine-4-carboxylic acid] |
| ≤ 100 | ≤ 100 | ≤ 100 | ≤ 100 | ≤ 100 | Cc1cccc(CN(C)CCn2cnc(-c3cc(C(=O)O)ccn3)c2)c1 [Example 66, 2-[1-[2-[methyl-[(3-methylphenyl)methyl]amino]ethyl]imidazol-4-yl]pyridine-4-carboxylic acid] |
| ≤ 100 | ≤ 100 | ≤ 100 | ≤ 100 | ≤ 100 | CN(CCn1cnc(-c2cc(C(=O)O)ccn2)c1)Cc1cccc(F)c1 [Example 69, 2-[1-[2-[(3-fluorophenyl)methyl-methylamino]ethyl]imidazol-4-yl]pyridine-4-carboxylic acid] |
| ≤ 100 | ≤ 100 | ≤ 100 | ≤ 100 | ≤ 100 | Cc1ccc(CN(C)CCn2cnc(-c3cc(C(=O)O)ccn3)c2)cc1 [Example 67, 2-[1-[2-[methyl-[(4-methylphenyl)methyl]amino]ethyl]imidazol-4-yl]pyridine-4-carboxylic acid] |
